Source: US8716289B2, “Carbamate derivatives of alkyl-heterocycles, preparation thereof and therapeutic use thereof” (Sanofi, priority 2008, dated 2014)

melting point [°C] | Compound
96 to 98 | CC(C)c1noc(COC(=O)NCCC2CCN(c3ccc(-c4ccc(F)cc4)cn3)CC2)n1 [Compound 7, 3-isopropyl[1,2,4]oxadiazol-5-ylmethyl 2-[5′-(4-fluorophenyl)-3,4,5,6-tetrahydro-2H-[1,2′]bipyridinyl-4-yl]-ethylcarbamate]
154 to 156 | Cn1ccc(COC(=O)NCCC2CCN(c3ccc(-c4ccc(F)cc4)cn3)CC2)n1 [Compound 8, 1-methyl-1H-pyrazol-3-ylmethyl 2-[5′-(4-fluorophenyl)-3,4,5,6-tetrahydro-2H-[1,2′]bipyridinyl-4-yl]ethylcarbamate]
139 to 140 | CC(C)(C)c1nnc(COC(=O)NCCC2CCN(c3ccc(-c4ccc(F)cc4)cn3)CC2)s1 [Compound 10, 5-tert-butyl[1,3,4]thiadiazol-2-ylmethyl 2-[5′-(4-fluorophenyl)-3,4,5,6-tetrahydro-2H-[1,2′]bipyridinyl-4-yl]-ethylcarbamate]
112 to 113 | CC(C)c1nc(COC(=O)NCCC2CCN(c3ccc(-c4ccc(F)cc4)cn3)CC2)no1 [Compound 11, 5-isopropyl[1,2,4]oxadiazol-3-ylmethyl 2-[5′-(4-fluorophenyl)-3,4,5,6-tetrahydro-2H-[1,2′]bipyridinyl-4-yl]-ethylcarbamate]
206 to 208 | NC(=O)c1coc(COC(=O)NCCC2CCN(c3ccc(-c4ccc(F)cc4)cn3)CC2)n1 [Compound 21, 4-carbamoyloxazol-2-ylmethyl 2-[5′-(4-fluorophenyl)-3,4,5,6-tetrahydro-2H-[1,2′]bipyridinyl-4-yl]ethylcarbamate]
155.5 to 157.5 | CNC(=O)c1cc(COC(=O)NCCC2CCN(c3cccc(-c4ccc(F)cc4)n3)CC2)on1 [Compound 22, 3-methylcarbamoylisoxazol-5-ylmethyl 2-[6′-(4-fluoro-phenyl)-3,4,5,6-tetrahydro-2H-[1,2′]bipyridinyl-4-yl]-ethylcarbamate]
200 to 202 | NC(=O)c1cc(COC(=O)NCCC2CCN(c3ccc4cc(F)ccc4n3)CC2)on1 [Compound 23, 3-carbamoylisoxazol-5-ylmethyl 2-[1-(6-fluoroquinolin-2-yl)piperidin-4-yl]ethylcarbamate]
172 to 174 | NC(=O)c1cc(COC(=O)NCCC2CCN(c3cccc(-c4ccc(F)cc4)n3)CC2)on1 [Compound 24, 3-carbamoylisoxazol-5-ylmethyl 2-[6′-(4-fluorophenyl)-3,4,5,6-tetrahydro-2H-[1,2′]bipyridinyl-4-yl]ethylcarbamate]
180 to 182 | CNC(=O)c1cc(COC(=O)NCCC2CCN(c3ccc4cc(F)ccc4n3)CC2)on1 [Compound 25, 3-methylcarbamoylisoxazol-5-ylmethyl 2-[1-(6-fluoroquinolin-2-yl)piperidin-4-yl]ethylcarbamate]
191 to 193 | CNC(=O)c1cc(COC(=O)NCCC2CCN(c3ccc(-c4ccc(F)cc4)cn3)CC2)on1 [Compound 26, 3-methylcarbamoylisoxazol-5-ylmethyl 2-[5′-(4-fluorophenyl)-3,4,5,6-tetrahydro-2H-[1,2′]bipyridinyl-4-yl]-ethylcarbamate]
81 to 83 | CN(C)C(=O)c1cc(COC(=O)NCCC2CCN(c3cccc(-c4ccc(F)cc4)n3)CC2)on1 [Compound 27, 3-dimethylcarbamoylisoxazol-5-ylmethyl 2-[6′-(4-fluorophenyl)-3,4,5,6-tetrahydro-2H-[1,2′]bipyridinyl-4-yl]-ethylcarbamate]
172 to 176 | NC(=O)c1cc(COC(=O)NCCC2CCN(c3ccc(-c4cccc(F)c4)cn3)CC2)on1 [Compound 28, 3-carbamoylisoxazol-5-ylmethyl 2-[5′-(3-fluorophenyl)-3,4,5,6-tetrahydro-2H-[1,2′]bipyridinyl-4-yl]ethylcarbamate]
149 to 151 | CN(C)C(=O)c1cc(COC(=O)NCCC2CCN(c3ccc(-c4ccc(F)cc4)cn3)CC2)on1 [Compound 30, 3-dimethylcarbamoylisoxazol-5-ylmethyl 2-[5′-(4-fluorophenyl)-3,4,5,6-tetrahydro-2H-[1,2′]bipyridinyl-4-yl]-ethylcarbamate]
114 to 116 | CN(C)C(=O)c1cc(COC(=O)NCCC2CCN(c3ccc4cc(Cl)ccc4n3)CC2)on1 [Compound 31, 3-dimethylcarbamoylisoxazol-5-ylmethyl 2-[1-(6-chloroquinolin-2-yl)piperidin-4-yl]ethylcarbamate]
150 to 152 | CNC(=O)c1cc(COC(=O)NCCC2CCN(c3cncc(-c4ccc(F)cc4)n3)CC2)on1 [Compound 32, 3-methylcarbamoylisoxazol-5-ylmethyl 2-{1-[6-(4-fluorophenyl)pyrazin-2-yl]piperidin-4-yl}ethylcarbamate]
180 to 182 | O=C(NCCC1CCN(c2ccc3cc(Cl)ccc3n2)CC1)OCc1cc(C(=O)O)no1 [Compound 53, 5-{2-[1-(6-chloroquinolin-2-yl)piperidin-4-yl]ethylcarbamoyloxymethyl}isoxazole-3-carboxylic acid]

More lines, now with the values behind:

Compound | melting point [°C]
CC(C)CC(OC(=O)NCCC1CCN(c2ccc3cc(Cl)ccc3n2)CC1)c1ccoc1 (racemic) | 97 to 99
CC(C)CC(OC(=O)NCCC1CCN(c2cccc(-c3ccc(F)cc3)n2)CC1)c1ccoc1 (racemic) | 101 to 103
CN(C)C1(CCNC(=O)OC(c2nccn2C)C(F)(F)F)CN(c2nnc(Cl)c3ccccc23)C1 (racemic) [Compound 63, 2,2,2-trifluoro-1-(1-methyl-1H-imidazol-2-yl)ethyl {2-[1-(4-chlorophthalazin-1-yl)-3-dimethylaminoazetidin-3-yl]ethyl}-carbamate] | 168 to 170
Cn1ccnc1C(OC(=O)NCCC1CCN(c2ccc3cc(Cl)ccc3n2)CC1)C(F)(F)F (racemic) [Compound 73, 2,2,2-trifluoro-1-(1-methyl-1H-imidazol-2-yl)ethyl {2-[1-(6-chloroquinolin-2-yl)piperidin-4-yl]ethyl}carbamate] | 196 to 198
NC(=O)c1cc(COC(=O)NC2CCCN(c3nccc(C(F)(F)F)n3)CC2)on1 (racemic) [Compound 74, 3-carbamoylisoxazol-5-ylmethyl (±)[1-(4-trifluoromethylpyrimidin-2-yl)azepan-4-yl]carbamate] | 171 to 173
CNC(=O)c1cc(COC(=O)NCC2CCN(c3nnc(Cl)c4ccccc34)C2)on1 (racemic) [Compound 79, 3-methylcarbamoylisoxazol-5-ylmethyl (±)[1-(4-chlorophthalazin-1-yl)pyrrolidin-3-ylmethyl]carbamate] | 159 to 161
O=C(NCCC1CCN(c2ccc3cc(Cl)ccc3n2)CC1)OCc1cc(-c2ccc(Cl)cc2)no1 [Compound 3, 3-(4-chlorophenyl)isoxazol-5-ylmethyl 2-[1-(6-chloroquinolin-2-yl)piperidin-4-yl]ethylcarbamate] | 139 to 140
O=C(NCCC1CCN(c2ccc3cc(Cl)ccc3n2)CC1)OCc1nc(-c2ccc(Cl)cc2)no1 [Compound 4, 3-(4-chlorophenyl)[1,2,4]oxadiazol-5-ylmethyl 2-[1-(6-chloroquinolin-2-yl)piperidin-4-yl]ethylcarbamate] | 134 to 136
Cc1onc(-c2ccccc2)c1COC(=O)NCCC1CCN(c2ccc3cc(Cl)ccc3n2)CC1 [Compound 6, 5-methyl-3-phenylisoxazol-4-ylmethyl 2-[1-(6-chloroquinolin-2-yl)piperidin-4-yl]ethylcarbamate] | 110 to 112
O=C(NCCC1CCN(c2ccc3cc(Cl)ccc3n2)CC1)OCc1nnc(-c2ccc(Cl)cc2)o1 [Compound 13, 5-(4-chlorophenyl)[1,3,4]oxadiazol-2-ylmethyl 2-[1-(6-chloroquinolin-2-yl)piperidin-4-yl]ethylcarbamate] | 152 to 153
COc1ccc(-c2nnc(COC(=O)NCCC3CCN(c4ccc5cc(Cl)ccc5n4)CC3)o2)cc1 [Compound 14, 5-(4-methoxyphenyl)[1,3,4]oxadiazol-2-ylmethyl 2-[1-(6-chloroquinolin-2-yl)piperidin-4-yl]ethylcarbamate] | 154 to 156
O=C(NCCC1CCN(c2ccc3cc(Cl)ccc3n2)CC1)OCc1nc(-c2ccc(F)cc2)no1 [Compound 15, 3-(4-fluorophenyl)[1,2,4]oxadiazol-5-ylmethyl 2-[1-(6-chloroquinolin-2-yl)piperidin-4-yl]ethylcarbamate] | 160 to 162
O=C(NCCC1CCN(c2ccc3cc(Cl)ccc3n2)CC1)OCc1nc(-c2cccc(F)c2)no1 [Compound 16, 3-(3-fluorophenyl)[1,2,4]oxadiazol-5-ylmethyl 2-[1-(6-chloroquinolin-2-yl)piperidin-4-yl]ethylcarbamate] | 134 to 136
O=C(NCCC1CCN(c2ccc3cc(Cl)ccc3n2)CC1)OCc1nsc(-c2ccc(Cl)cc2)n1 [Compound 17, 5-(4-chlorophenyl)[1,2,4]thiadiazol-3-ylmethyl 2-[1-(6-chloroquinolin-2-yl)piperidin-4-yl]ethylcarbamate] | 191 to 193
O=C(NCCC1CCN(c2ccc3cc(Cl)ccc3n2)CC1)OCc1csnn1 [Compound 18, [1,2,3]thiadiazol-4-ylmethyl 2-[1-(6-chloroquinolin-2-yl)piperidin-4-yl]ethylcarbamate] | 146 to 148
CNC(=O)c1cc(COC(=O)NCCC2CCN(c3ccc4cc(Cl)ccc4n3)CC2)on1 [Compound 20, 3-methylcarbamoylisoxazol-5-ylmethyl 2-[1-(6-chloroquinolin-2-yl)piperidin-4-yl]ethylcarbamate] | 200 to 202
CCOC(=O)c1cc(COC(=O)NCC2(F)CCN(c3nccc(C(F)(F)F)n3)CC2)on1 [Compound 51, ethyl 5-[4-fluoro-1-(4-trifluoromethylpyrimidin-2-yl)-piperidin-4-ylmethylcarbamoyloxymethyl]isoxazole-3-carboxylate] | 136 to 138
CC(C)c1nc(COC(=O)NCC2CCN(c3nccc(C(F)(F)F)n3)CC2)no1 [Compound 55, 5-isopropyl[1,2,4]oxadiazol-3-ylmethyl [1-(4-trifluoromethylpyrimidin-2-yl)piperidin-4-yl]methylcarbamate] | 104 to 106
